Experimental data: US12391679B2, “Benzamide-substituted bicyclic imidazo- and pyrazolo-fused -pyridine, -pyrimide, and -pyridazine compounds for treatment of inflammatory diseases” (ONCO3R Therapeutics BV, priority 2019, dated 2025)

Columns and labels:
[1] = test system: LPS-induced TNFα in monocyte-derived macrophages; assay: MdM assay: LPS-triggered TNFα (ELISA); assay type: cell-based, human; details: Macrophage; human MdM; LPS 200 ng/mL; supernatant after 20 h; inhibition of TNFα; read-out: TNFα EC50
Method in brief: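 TNFα secretion quantified by streptavidin-HRP/luminol sandwich ELISA in supernatants collected 20 h after LPS (200 ng/mL). Macrophages derived from magnetically isolated human CD14+ monocytes were used at day 10, with compound added 1 h before LPS; final DMSO 0.2%.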

SIK3 = molecular target: T1, SIK3 (Homo sapiens, UniProt Q9Y2K2); assay: ADP-Glo kinase assay, SIK3; assay type: biochemical
T1 construct: purchased SignalChem S12-11G-100
T1 sequence (Q9Y2K2 59-365 limits assumed): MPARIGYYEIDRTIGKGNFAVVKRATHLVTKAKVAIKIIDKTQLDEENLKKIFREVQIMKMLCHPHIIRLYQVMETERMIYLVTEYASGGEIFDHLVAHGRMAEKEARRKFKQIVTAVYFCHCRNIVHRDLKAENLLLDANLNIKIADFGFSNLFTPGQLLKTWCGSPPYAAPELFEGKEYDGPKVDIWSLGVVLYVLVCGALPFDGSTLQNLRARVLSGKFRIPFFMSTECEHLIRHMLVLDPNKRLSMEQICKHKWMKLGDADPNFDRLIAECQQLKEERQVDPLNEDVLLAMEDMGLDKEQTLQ
Method in brief: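 Luminescent ADP-Glo readout of ADP formed. Enzyme-substrate mix with ATP, reaction 120 min at RT, then 40 min ATP depletion and 30 min detection. Controls were 1% DMSO (negative) and 10 μM staurosporine (positive), both final.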

Structure (SMILES) | EC50 [1] | IC50 (SIK3)
COc1cc(-c2cnc3cc(C(C)(C)C#N)ccn23)cc(OC(F)F)c1C(=O)NCC(F)F [Cpd 70, 4-[7-(1-cyano-1-methyl-ethyl)imidazo[1,2-a]pyridin-3-yl]-N-(2,2-difluoroethyl)-2-(difluoromethoxy)-6-methoxy-benzamide] | 100 to 1000 nM | 0.01 to 10 nM
COc1cc(-c2cnc3cc(C(C)(C)C#N)ccn23)cc(OC(F)F)c1C(=O)N1CC(C#N)C1 [Cpd 77, 1-[4-[7-(1-cyano-1-methyl-ethyl)imidazo[1,2-a]pyridin-3-yl]-2-(difluoromethoxy)-6-methoxy-benzoyl]azetidine-3-carbonitrile] | 100 to 1000 nM | 0.01 to 10 nM
COc1cc(-c2cnc3cc(C(C)(C)CN)ccn23)cc(OC(F)F)c1C(=O)NC1CC1 [Cpd 93, 4-[7-(2-amino-1,1-dimethyl-ethyl)imidazo[1,2-a]pyridin-3-yl]-N-cyclopropyl-2-(difluoromethoxy)-6-methoxy-benzamide] | 1000 to 5000 nM | 10 to 100 nM
COc1cc(-c2cnc3cc(C(C)(C)C#N)ccn23)cc(OC(F)F)c1C(=O)N1CC(F)C1 [Cpd 96, 2-[3-[3-(difluoromethoxy)-4-(3-fluoroazetidine-1-carbonyl)-5-methoxy-phenyl]imidazo[1,2-a]pyridin-7-yl]-2-methyl-propanenitrile] | 100 to 1000 nM | 0.01 to 10 nM
COc1cc(-c2cnc3cc(C4(C#N)CCOCC4)ccn23)cc(OC(F)F)c1C(=O)NC1CC1 [Cpd 116, 4-[7-(4-cyanotetrahydropyran-4-yl)imidazo[1,2-a]pyridin-3-yl]-N-cyclopropyl-2-(difluoromethoxy)-6-methoxy-benzamide] | 1000 to 5000 nM | 0.01 to 10 nM
COc1cc(-c2cnc3cc(C4(C#N)COC4)ccn23)cc(OC(F)F)c1C(=O)NC1CC1 [Cpd 117, 4-[7-(3-cyanooxetan-3-yl)imidazo[1,2-a]pyridin-3-yl]-N-cyclopropyl-2-(difluoromethoxy)-6-methoxy-benzamide] | 100 to 1000 nM | 0.01 to 10 nM
COc1cc(-c2cnc3cc(C(C)(O)C(F)(F)F)ccn23)cc(OC(F)F)c1C(=O)NC1CC1 (centres unmarked) [Cpd 129, N-cyclopropyl-2-(difluoromethoxy)-6-methoxy-4-[7-(2,2,2-trifluoro-1-hydroxy-1-methyl-ethyl)imidazo[1,2-a]pyridin-3-yl]benzamide] | 100 to 1000 nM | 10 to 100 nM
COc1cc(-c2cnc3cc(C(C)O)ccn23)cc(OC(F)F)c1C(=O)NC1CC1 (centres unmarked) [Cpd 140, N-cyclopropyl-2-(difluoromethoxy)-4-[7-(1-hydroxyethyl)imidazo[1,2-a]pyridin-3-yl]-6-methoxy-benzamide] | 1000 to 5000 nM | 10 to 100 nM
COc1cc(-c2cnc3cc(C(C)(C)CO)ccn23)cc(OC(F)F)c1C(=O)NC1CC1 [Cpd 150, N-cyclopropyl-2-(difluoromethoxy)-4-[7-(2-hydroxy-1,1-dimethyl-ethyl)imidazo[1,2-a]pyridin-3-yl]-6-methoxy-benzamide] | 100 to 1000 nM | 0.01 to 10 nM

Further lines, results first:

EC50 [1] | IC50 (SIK3) | Structure (SMILES)
100 to 1000 nM | 0.01 to 10 nM | COc1cc(-c2cnc3cc(C(C)(C)C#N)ccn23)cc(OC(F)F)c1C(=O)N[C@@H]1C[C@@H]1F [Cpd 79, 4-[7-(1-cyano-1-methyl-ethyl)imidazo[1,2-a]pyridin-3-yl]-2-(difluoromethoxy)-N-[(1R,2S)-2-fluorocyclopropyl]-6-methoxy-benzamide]
1000 to 5000 nM | 0.01 to 10 nM | COc1cc(-c2cnn3cc(C4CCOCC4)cnc23)cc(OC(F)F)c1C(=O)NC1CC1 [Cpd 95, N-cyclopropyl-2-(difluoromethoxy)-6-methoxy-4-(6-tetrahydropyran-4-ylpyrazolo[1,5-a]pyrimidin-3-yl)benzamide]
100 to 1000 nM | 0.01 to 10 nM | COc1cc(-c2cnc3cc(C(C)(C)N)ccn23)cc(OC(F)F)c1C(=O)NC1CC1 [Cpd 106, 4-[7-(1-amino-1-methyl-ethyl)imidazo[1,2-a]pyridin-3-yl]-N-cyclopropyl-2-(difluoromethoxy)-6-methoxy-benzamide]
1000 to 5000 nM | 0.01 to 10 nM | COc1cc(-c2cnc3cc(C4(C#N)CCOCC4)ccn23)cc(OC)c1C(=O)NCC(F)(F)F [Cpd 107, 4-[7-(4-cyanotetrahydropyran-4-yl)imidazo[1,2-a]pyridin-3-yl]-2,6-dimethoxy-N-(2,2,2-trifluoroethyl)benzamide]
100 to 1000 nM | 0.01 to 10 nM | COC(=O)C1(c2ccn3c(-c4cc(OC)c(C(=O)NC5CC5)c(OC(F)F)c4)cnc3c2)CC1 [Cpd 113, methyl 1-[3-[4-(cyclopropylcarbamoyl)-3-(difluoromethoxy)-5-methoxy-phenyl]imidazo[1,2-a]pyridin-7-yl]cyclopropanecarboxylate]
1000 to 5000 nM | 10 to 100 nM | COc1cc(-c2cnc3cc(C4(C#N)CCOC4)ccn23)cc(OC(F)F)c1C(=O)NC1CC1 (centres unmarked) [Cpd 123, 4-[7-(3-cyanotetrahydrofuran-3-yl)imidazo[1,2-a]pyridin-3-yl]-N-cyclopropyl-2-(difluoromethoxy)-6-methoxy-benzamide]
100 to 1000 nM | 10 to 100 nM | CCOC(C)(C)c1ccn2c(-c3cc(OC)c(C(=O)NC4CC4)c(OC(F)F)c3)cnc2c1 [Cpd 128, N-cyclopropyl-2-(difluoromethoxy)-4-[7-(1-ethoxy-1-methyl-ethyl)imidazo[1,2-a]pyridin-3-yl]-6-methoxy-benzamide]
100 to 1000 nM | 0.01 to 10 nM | COc1cc(-c2cnc3cc(C4(C#N)COC4)ccn23)cc(OC(F)F)c1C(=O)N[C@@H]1C[C@@H]1F [Cpd 130, 4-[7-(3-cyanooxetan-3-yl)imidazo[1,2-a]pyridin-3-yl]-2-(difluoromethoxy)-N-[(1R,2S)-2-fluorocyclopropyl]-6-methoxy-benzamide]
100 to 1000 nM | 0.01 to 10 nM | COc1cc(-c2cnc3cc(C(F)(F)CO)ccn23)cc(OC(F)F)c1C(=O)NC1CC1 [Cpd 136, N-cyclopropyl-4-[7-(1,1-difluoro-2-hydroxy-ethyl)imidazo[1,2-a]pyridin-3-yl]-2-(difluoromethoxy)-6-methoxy-benzamide]
100 to 1000 nM | 10 to 100 nM | CCC(C)(O)c1ccn2c(-c3cc(OC)c(C(=O)NC4CC4)c(OC(F)F)c3)cnc2c1 (centres unmarked) [Cpd 137, N-cyclopropyl-2-(difluoromethoxy)-4-[7-(1-hydroxy-1-methyl-propyl)imidazo[1,2-a]pyridin-3-yl]-6-methoxy-benzamide]
100 to 1000 nM | 10 to 100 nM | COc1cc(-c2cnc3cc(C(C)(O)C4CC4)ccn23)cc(OC(F)F)c1C(=O)NC1CC1 (centres unmarked) [Cpd 138, N-cyclopropyl-4-[7-(1-cyclopropyl-1-hydroxy-ethyl)imidazo[1,2-a]pyridin-3-yl]-2-(difluoromethoxy)-6-methoxy-benzamide]
1000 to 5000 nM | 10 to 100 nM | COc1cc(-c2cnc3cc(C(C)N4CCCCC4)ccn23)cc(OC(F)F)c1C(=O)NC1CC1 (centres unmarked) [Cpd 146, N-cyclopropyl-2-(difluoromethoxy)-6-methoxy-4-[7-[1-(1-piperidyl)ethyl]imidazo[1,2-a]pyridin-3-yl]benzamide]
100 to 1000 nM | 10 to 100 nM | COc1cc(-c2cnc3cc(C(C)(C)CN4CCOCC4)ccn23)cc(OC(F)F)c1C(=O)NC1CC1 [Cpd 160, N-cyclopropyl-2-(difluoromethoxy)-4-[7-(1,1-dimethyl-2-morpholino-ethyl)imidazo[1,2-a]pyridin-3-yl]-6-methoxy-benzamide]
